# Results from US10426772B2, “Use of ergot alkaloids as an anthelmintic agent” (priority 2016, dated 2019).
# Target: Sm.5HTR (Schistosoma mansoni, UniProt A0A173FEI8)
# Test: cell-based
# Description: HEK293 cells (ATCC CRL-1573.3) were cultured in growth media consisting of DMEM supplemented with GlutaMAX (Gibco cat #10566016)+10% heat inactivated fetal bovine serum and penicillin-streptomycin (100 units/mL, ThermoFisher). Stable cell lines for the pGloSensor-22F cAMP Plasmid (Promega) and schistosome 5HTRs in pcDNA3.1(−) were selected with hygromycin (200 μg/mL) and G418 (400 μg/mL). The correct identity of each stably expressed sequence was verified by isolating total RNA from each stable line (TRIzol Reagent, Ambion) and amplifying the sequence of interest with gene specific primers flanking the 5′ and 3′ regions of the cds (SuperScript® III One-Step RT-PCR System, Invitrogen). PCR products were ligated into a TA cloning vector (pGEM-T Easy, Promega) and sequenced.
# HEK293 lines stably expressing both the 22F cAMP sensor and Sm.5HTR were cultured in growth media supplemented with 10% dialyzed FRS. For cAMP assays in 96 well format, cells cultured in T-75 flasks were trypsinized (TrypLE Express, Gibco) and plated in solid white 96 well plates (Costar cat #3917) the day prior to assay at a density of 2.5×10^4 cells/well. The following day media was removed and replaced with assay buffer consisting of HBSS buffered with HEPES (20 mM, pH 7.4)+BSA (0.1% w/v) and D-luciferin sodium salt (1 mg/mL, Gold Biotechnology). Plates were equilibrated at room temperature for 1 hour, at which point 3-Isobutyl-1-methylxanthine (IBMX 200 μM, Sigma Aldrich) was added. Plates were equilibrated a further 30 minutes prior to test compound addition. […] Readings performed in 384 well format were modified so that cells were assayed in suspension. Cells were grown to 70% confluence in T-75 flasks, trypsinized and pelleted (300 RCF×5 minutes). Media was removed and cells were resuspended in 25 mL assay buffer supplemented with IBMX (200 μM). A 96 channel semi-automated pipet (Eppendorf epMotion 96) delivered 55 μL of cell suspension per well (5000 cells/well) into solid white 384 plates (Corning 3574).
# Sequence of Sm.5HTR (A0A173FEI8 entry or part of it): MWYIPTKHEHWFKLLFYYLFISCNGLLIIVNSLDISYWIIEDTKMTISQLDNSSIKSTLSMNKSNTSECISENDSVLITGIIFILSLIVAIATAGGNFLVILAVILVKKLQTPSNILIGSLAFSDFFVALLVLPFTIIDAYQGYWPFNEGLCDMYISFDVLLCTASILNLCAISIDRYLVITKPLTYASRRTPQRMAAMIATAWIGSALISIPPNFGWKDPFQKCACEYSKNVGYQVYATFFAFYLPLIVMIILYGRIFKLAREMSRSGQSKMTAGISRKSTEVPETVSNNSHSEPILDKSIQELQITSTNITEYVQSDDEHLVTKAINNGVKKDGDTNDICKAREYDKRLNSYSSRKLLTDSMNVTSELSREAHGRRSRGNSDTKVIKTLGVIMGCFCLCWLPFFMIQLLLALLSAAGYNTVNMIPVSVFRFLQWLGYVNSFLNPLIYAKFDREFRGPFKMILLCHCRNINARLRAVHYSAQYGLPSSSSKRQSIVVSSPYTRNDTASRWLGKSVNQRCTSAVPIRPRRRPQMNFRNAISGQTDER
smiles,measurement,setting,value
CN1C[C@H](C(=O)N[C@]2(C)O[C@@]3(O)[C@@H]4CCCN4C(=O)[C@H](Cc4ccccc4)N3C2=O)C=C2c3cccc4[nH]cc(c34)C[C@H]21 [ergotamine],EC50,,43 ± 13 nM
same,Emax,"HEK293, read-out: Sm.5HTR Emax",95 ± 5%
